Experimental data from patent publication US8338637B2, “Therapeutic compounds” (Allergan, Inc., priority 2006, dated 2012).

Columns and labels:
EP2 [1] = molecular target: T1, EP2 (Homo sapiens, UniProt P43116); assay: cAMP assay, HEK-EBNA cells expressing EP2; format: cell-based; design: expressed in transfected cells; host or cells: HEK-EBNA cells
Description: A 384-well drug plate was prepared to contain 6 test compounds, PGE2 and cAMP in 16 serial dilutions in triplicate, using a Biomek station. HEK-EBNA cells expressing a target PG receptor subtype (EP2 or EP4) were suspended in a stimulation buffer (HBSS, 0.1% BSA, 0.5 mM IBMX and 5 mM HEPES, pH 7.4) in a density of 10^4 cells/5 μl. The reaction was initiated by mixing 5 μL drug dilutions with 5 μl of HEK-EBNA cells in a well, carried out for 30 min at room temperature, and followed by the addition of 5 μl anti-cAMP acceptor beads in the control buffer with Tween-20 (25 mM NaCl, 0.03% Tween-20, 5 mM HEPES, pH7.4). After 30 min in the dark at room temperature, the mixtures were incubated with 15 μl biotinylated-cAMP/strepavidin donor beads in Lysis/Detection buffer (0.1% BSA, 0.3% Tween-20 and 5 mM HEPES, pH7.4) for 45 min at the room temperature. Fluorescence changes were read using a Fusion-alpha HT microplate reader.

EP4 receptors = molecular target: T2, EP4 receptors (Homo sapiens, UniProt P35408); assay: Radioligand binding, EP4 receptor; settings: [3H]PGE2 competition
T2 construct: expressed in transfected cells; host or cells: HEK-293 cells (membrane fraction)
Description: HEK-293 cells stably expressing the human or feline FP receptor, or EP1, EP2, or EP4 receptors were washed with TME buffer, scraped from the bottom of the flasks, and homogenized for 30 sec using a Brinkman PT 10/35 polytron. TME buffer was added to achieve a final 40 ml volume in the centrifuge tubes (the composition of TME is 100 mM TRIS base, 20 mM MgCl2, […]; 10N HCl is added to achieve a pH of 7.4).
The cell homogenate was centrifuged at 19000 r.p.m. for 20 min at 4° C. using a Beckman Ti-60 rotor. The resultant pellet was resuspended in TME buffer to give a final 1 mg/ml protein concentration, as determined by Biorad assay. Radioligand binding competition assays vs. [^3H-]17-phenyl PGF2[…] (5 nM) were performed in a 100 μl volume for 60 min. Binding reactions were started by adding plasma membrane fraction. The reaction was terminated by the addition of 4 ml ice-cold TRIS-HCl buffer and rapid filtration through glass fiber GF/B filters using a Brandel cell harvester. The filters were washed 3 times with ice-cold buffer and oven dried for one hour.
[^3H-] PGE2 (specific activity 180 Ci mmol) was used as the radioligand for EP receptors. [^3H] 17-phenyl PGF2α was employed for FP receptor binding studies. […] 17-phenyl PGF2α and non-specific binding determined with 10^−5M of unlabeled PGE2, or 17-phenyl PGF2α, according to receptor subtype studied.

EP2 [2] = molecular target: T1, EP2; assay: Competition binding, [3H]PGE2, HEK 293 cells expressing human EP2 receptors; design: expressed in transfected cells; host or cells: HEK 293 cells (membranes or whole cells); settings: [3H]PGE2 competition
Description: Competition binding experiments were performed in a medium containing Hank's balanced salt solution, Hepes 20 mM, pH 7.3, membranes (˜60 μg protein) or 2×10^5 cells from HEK 293 cells stably expressing human EP2 receptors, [^3H]PGE2 (10 nM) and various concentrations of test compounds in a total volume of 300 μl. Reaction mixtures were incubated at 23° C. for 60 min, and were filtered over Whatman GF/B filters under vacuum. Filters were washed three times with 5 ml ice-cold buffer containing 50 mM Tris/HCl (pH 7.3). Non-specific binding was estimated in the presence of excess unlabeled PGE2 (10 μM). Binding data fitted to the binding model for a single class of binding sites, using nonlinear regression analysis. IC50 values thus obtained were converted to Ki using the equation of Ki=(IC50/(1+[L]/KD) where [L] represents PGE2 concentration (10 nM) and KD the dissociation constant for [^3H]PGE2 at human EP2 receptors (40 nM). […]
The cell homogenate was centrifuged at 19000 r.p.m. for 20 min at 4° C. using a Beckman Ti-60 rotor. The resultant pellet was resuspended in TME buffer to give a final 1 mg/ml protein concentration, as determined by Biorad assay. […]
[^3H-] […] 17-phenyl PGF2α and non-specific binding determined with 10^−5M of unlabeled PGE2, or 17-phenyl PGF2α, according to receptor subtype studied.

T1 sequence (P43116 whole entry): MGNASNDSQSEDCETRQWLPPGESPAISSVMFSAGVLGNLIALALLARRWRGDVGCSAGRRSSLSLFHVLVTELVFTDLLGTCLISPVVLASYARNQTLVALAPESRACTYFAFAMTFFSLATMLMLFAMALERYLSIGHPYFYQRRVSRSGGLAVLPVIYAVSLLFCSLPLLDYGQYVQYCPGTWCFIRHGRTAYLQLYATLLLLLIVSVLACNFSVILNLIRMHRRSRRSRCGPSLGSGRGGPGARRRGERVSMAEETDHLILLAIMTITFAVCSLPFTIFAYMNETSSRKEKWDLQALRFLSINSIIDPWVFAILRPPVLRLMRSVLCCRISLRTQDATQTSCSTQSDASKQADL
T2 sequence (P35408 whole entry): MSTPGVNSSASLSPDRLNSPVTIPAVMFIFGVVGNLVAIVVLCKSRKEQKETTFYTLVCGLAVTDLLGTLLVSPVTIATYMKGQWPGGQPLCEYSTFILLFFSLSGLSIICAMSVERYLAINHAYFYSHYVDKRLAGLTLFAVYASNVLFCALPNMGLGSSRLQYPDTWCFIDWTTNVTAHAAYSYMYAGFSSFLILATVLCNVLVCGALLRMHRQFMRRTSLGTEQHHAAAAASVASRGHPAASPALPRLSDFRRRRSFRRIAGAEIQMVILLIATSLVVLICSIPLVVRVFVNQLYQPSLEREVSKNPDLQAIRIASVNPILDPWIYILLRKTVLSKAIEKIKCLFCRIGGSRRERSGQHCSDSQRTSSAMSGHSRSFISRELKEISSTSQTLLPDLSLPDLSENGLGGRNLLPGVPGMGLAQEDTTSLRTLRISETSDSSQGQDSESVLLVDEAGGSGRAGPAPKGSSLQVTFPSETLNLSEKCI

| EC50 (EP2 [1]) [µM] | Ki (EP4 receptors) [µM] | Ki (EP2 [2]) [µM] | SMILES |
| --- | --- | --- | --- |
| 0.457 | > 10 | 0.3 | O=C(O)c1ccc(CCC[C@H]2CCC(=O)[C@@H]2COc2cc(Cl)cc(CO)c2)s1 [5-{3-[(1S,2S)-2-(3-Chloro-5-hydroxymethyl-phenoxymethyl)-3-oxo-cyclopentyl]-propyl}thiophene-2-carboxylic acid] |
| 0.0087 | – | 0.201 | O=C(O)c1ccc(CCC[C@H]2C=CC(=O)[C@@H]2COc2cc(Cl)cc(CO)c2)s1 [5-{3-[(1S,5S)-5-(3-Chloro-5-hydroxymethyl-phenoxymethyl)-4-oxo-cyclopent-2-enyl]-propyl}-thiophene-2-carboxylic acid] |
